Patent publication US9585929B2 (ZHEJIANG KANGLAITE GROUP CO., LTD., priority 2014, dated 2017)
Marks after values point to notes of the source that are not given here.

How the values were obtained:
A549 human lung cancer = test: Xenograft model of A549 human lung cancer inoculated subcutaneously in nude mice; type: in vivo, BALB/C nude mice
Description: A549 Human lung cancer cells cryopreserved in liquid nitrogen were recovered, and incubated in a 37 incubator under 5% CO2. After being subcultured, cells in a logarithmic growth stage were distributed with normal saline to be a cell suspension in a concentration of 1-2×10^7 cells/ml. The cell suspension was inoculated into BALB/C nude mice (SPF grade, 18-20 g, 6 weeks old, male) subcutaneously at right axillary. The tumor tissues were aseptically taken from the 2nd generation of xenograft model of A549 human lung cancer in a vigorous growth stage and cut into small uniform pieces in the size of 1-2 mm^3. The right axillary of each nude mouse was inoculated one piece subcutaneously via a trocar. When the inoculated tumor could be touched, the mice were randomly grouped and administered according to the experimental design program. All contacted feed, padding, cages and equipment, etc., should be autoclaved prior to use. The nude mice were fed in a laminar flow rack. Tumor sizes and animal weights were observed and tested dynamically. Mice in each group were sacrificed 3 weeks later or so, and tumors were surgically removed and weighed. The inhibition rate on tumor was calculated according to the following formula: Inhibition rate %=[(Mean tumor weight of the control group−mean tumor weight of the treatment group)/mean tumor weight of the control group]×100%;
Q value of antitumor effect in drug combination was calculated according to Jin's formula: Q=Ea+b/(Ea+Eb−Ea×Eb) Wherein Ea+b=the tumor inhibition rate of drug combination, Ea or Eb=the tumor inhibition rate of drug A or drug B, respectively. If Q value=0.85-1.15, an additive effect (+) was shown; if Q value>1.15, a synergistic effect (++) was shown.

[1] = system: Bcap-37 human breast cancer; test: Bcap-37 human breast cancer model in nude mice; type: in vivo, BALB/C nude mice; conditions: Docetaxel 25 mg/kg ip × 1
Description: The injection of the invention (10 g/100 ml), Docetaxel injection (Taxotere, 20 mg/vial) and normal saline
Bcap-37 human breast cancer: inoculated in BALB/C nude mice (SPF grade), 18-20 g, female
Tumor blocks of well-grown Bcap-37 human breast cancer were homogenized in normal saline to obtain cell suspensions in the concentration of 1-2×10^7 cells/ml. Each nude mouse was inoculated with 0.2 ml of the suspension at the right axilla subcutaneously, and the mice were grouped randomly. The administration began from the 7th day after the inoculation. 20 Days after the inoculation, the mice were sacrificed. Tumor blocks were taken out and weighed. Differences of tumor weight between each experimental group and the control group were compared, and tumor inhibition rates and Q values were calculated.

[2] = system: FC-3M human prostate cancer; test: FC-3M human prostate cancer model in nude mice; type: in vivo, BALB/C nude mice
Description: The injection of the invention (10 g/100 ml), Leuprolide acetate (Lupron) and normal saline
Tumor blocks of well-grown FC-3M human prostate cancer were homogenized in normal saline (1:4). Each nude mouse was inoculated with 0.2 ml of the suspension at the right axilla subcutaneously, and the mice were grouped randomly. The administration began from the next day. 21 Days after the inoculation, the mice were sacrificed. Tumor blocks were taken out and weighed. Differences of tumor weight between each experimental group and the control group were compared and the tumor inhibition rates were calculated.

S180 sarcoma = S180 sarcoma model in mice; type: in vivo, Kunmin mice; conditions: MMC 1.5 mg/kg ip × 2(1, 3)
Description: The injection of the invention (10 g/100 ml), Cyclophosphamide (CTX), Mitoxantrone (DHAD), Mitomycin (MMC) and normal saline
Ascitic fluid of mice having well-grown […] sarcoma was diluted with normal saline (1:4) to obtain a cell suspension of about 1-2×10^7 cells/ml. Each mouse was inoculated with 0.2 ml of the suspension subcutaneously at the right axilla, and the mice were grouped randomly. The administration began from the next day according to the dosage program in Table 7. On the tenth day after the inoculation of S180, animals were sacrificed via cervical dislocation and dissected to take out the tumor block. Weights of tumor were compared and inhibition rates were calculated for each group.

N.N.[Cl][Pt][Cl] [Cisplatin]
Inhibition rate (A549 human lung cancer; Cisplatin 1 mg/kg ip × 7 qd): 42.13%
Weight of animal end (A549 human lung cancer; Cisplatin 1 mg/kg ip × 7 qd): 24.0 g
Weight of animal start (A549 human lung cancer; Cisplatin 1 mg/kg ip × 7 qd): 20.2 g
Weight of tumor x ± SD (A549 human lung cancer; Cisplatin 1 mg/kg ip × 7 qd): 0.765 ± 0.11 g
Inhibition rate (A549 human lung cancer; Cisplatin 2 mg/kg ip × 7 qd): 86.31%
Weight of animal end (A549 human lung cancer; Cisplatin 2 mg/kg ip × 7 qd): 23.1 g
Weight of tumor x ± SD (A549 human lung cancer; Cisplatin 2 mg/kg ip × 7 qd): 0.181 ± 0.06 g

CC(=O)O[C@@]12CO[C@@H]1C[C@H](O)[C@@]1(C)C(=O)[C@H](O)C3=C(C)[C@@H](OC(=O)[C@H](O)[C@@H](NC(=O)OC(C)(C)C)c4ccccc4)C[C@@](O)([C@@H](OC(=O)c4ccccc4)[C@H]21)C3(C)C [Docetaxel]
Inhibition rate [1]: 56.80%
Weight of tumor x ± SD [1]: 1.27 ± 0.88 g

CCNC(=O)[C@@H]1CCCN1C(=O)[C@H](CCCNC(=N)N)NC(=O)[C@H](CC(C)C)NC(=O)[C@@H](CC(C)C)NC(=O)[C@H](Cc1ccc(O)cc1)NC(=O)[C@H](CO)NC(=O)[C@H](Cc1c[nH]c2ccccc12)NC(=O)[C@H](Cc1c[nH]cn1)NC(=O)[C@@H]1CCC(=O)N1 [Lupron, Leuprolide acetate]
Inhibition rate ([2]; Lupron 0.75 ml/kg iv × 1): 36.36** %
Weight of tumor x ± SD ([2]; Lupron 0.75 ml/kg iv × 1): 0.98 ± 0.23 g
Inhibition rate ([2]; Lupron 1.5 ml/kg iv × 1): 50.65** %
Weight of tumor x ± SD ([2]; Lupron 1.5 ml/kg iv × 1): 0.76 ± 0.14 g

CO[C@@]12[C@H](COC(N)=O)C3=C(C(=O)C(C)=C(N)C3=O)N1C[C@@H]1N[C@@H]12 [MMC, Mitomycin]
Inhibition rate (S180 sarcoma): 38.61* %
Weight of tumor x ± SD (S180 sarcoma): 0.97 ± 0.19 g
